Source: patent publication US12590100B2, “Tetrahydro-spiroindoline-pyrrolopyrrole-triones inhibitors of the NRF2-β-TrCP interaction for use in the treatment of fatty liver disease” (Universidad Autonoma De Madrid, priority 2021, dated 2026)

What was measured:
[1] = test system: Raw264.7 cells; assay: Inflammatory response in LPS-stimulated Raw264.7 cells; assay type: cell-based, mouse; settings: Raw264.7, PHAR 10 μM 8 h pretreatment
Protocol: FIG. 7. […] Serum-deprived Raw264.7 cells were pretreated with 10 μM of PHAR for 8 h. 0.1% DMSO was used as a vehicle. After that period of time, the cells were treated with 100 ng/ml of LPS for the indicated times. A), representative immunoblots of NRF2, HO1, p65, pre-IL1β, COX2, NOS2, and GAPDH as a loading control. The black arrow tip marks the specific band of p65 and NOS2. B), densitometric analysis of HO1 and NRF2 protein levels of the representative immunoblots of (A), expressed as a ratio of protein/GAPDH levels. The data is depicted as means±SEM (n=3). Statistical analysis was performed with two-way ANOVA followed by the Bonferroni test to compare inter-group differences. ***p<0.001 vs LPS. C), Densitometric analysis of pre-IL1β, COX2, and NOS2 protein levels of the representative immunoblots of (A), expressed as a ratio of protein/GAPDH levels. The data is depicted as means±SEM (n=3). Statistical analysis was performed with two-way ANOVA followed by the Bonferroni test to compare inter-group differences. ***p<0.001 vs. LPS. D) and E), the mRNA levels of Il1β, Cox2, Nos2, Il6, and Tnfα were determined by means of qRT-PCR and normalized by means of average Gapdh, Tbp, and β-actin. The data is depicted as mean±SEM (n=3). Statistical analysis was performed with two-way ANOVA followed by the Bonferroni test to check inter-group differences. ***p<0.001 vs. LPS. […] The cells were then stimulated with LPS (100 ng/ml, 1, 2, or 4 h) to trigger an inflammatory response.

[2] = test system: β-TrCP-NRF2 interaction; assay: NRF2 levels after LY294002 (PI3K inhibition, GSK-3β activation) in Keap1−/− MEFs; assay type: cell-based, mouse; settings: PHAR 10 μM 1 h, then LY294002 20 μM 15-240 min
[3] = test system: STAM mice (NAFLD); assay: STAM fatty liver model, treatment from steatosis stage (week 6); assay type: in vivo, mouse
Protocol: FIG. 12. PHAR decreases the inflammatory response in mice subjected to fatty liver in the STAM model. The STAM model is based on the induction of non-alcoholic fatty liver (NAFLD) generated by the subcutaneous injection of streptozotocin (STZ) in neonatal C57BL/6J mice (2-5 days old) followed by a high-fat diet administered from 4 weeks of age. In this case, we treated mice in the steatosis stage (week 6), 5 days a week with an IP administration of 50 mg/kg in order to analyze if PHAR prevents progression to the next stage (NASH). A), H&E staining of liver from PHAR-treated and untreated STAM mice. Histochemical lipid staining with oil red was used to visualize the amount of liver fat. B), normalized quantification of the amount of liver fat per mouse, measured by MRI, on the last day of treatment. C), representative MRI profiles of one mouse liver of each group. The peak that appears at an approximate frequency of 4.7 ppm corresponds to the water molecule (the majority), while the rest of the peaks give information on the amount of liver fat. The ratio of the sum of the fat peaks to water indicates the total liver fat content. D), mRNA levels of several genes involved in fatty acid metabolism (Cpt1a, Scd1, Cd36 and Fasn). E), the mRNA levels of the pro-inflammatory (Tnf, Il6 and Infg) and anti-inflammatory (Il10 and Il4) cytokines were determined by qRT-PCR and were normalized by the average of Gapdh, Tbp and β-actin. Statistical analysis was performed using a Student's t test to compare the differences between PHAR-treated mice vs vehicle-treated mice. *p<0.05; **p<0.01.
As previously described, the STAM model is a murine model used for the study of non-alcoholic fatty liver disease (NAFLD), as well as for the search of new effective treatments. This model is generated by the subcutaneous injection of streptozotocin (STZ) in 2-5 day old neonatal C57BL/6J mice followed by a high-fat diet, administered after 4 weeks of age. STZ produces a pancreatic lesion that leads to the appearance of hyperglycemia that, together with the high-fat diet, gradually leads to different stages of progressive liver damage: steatosis (week 6 post-STZ injection); Inflammatory NASH (week 8); NASH fibrosis (week 10) and, finally, hepatocarcinoma (week 16). The pathogenesis of NAFLD is closely related to the appearance of reactive oxygen species, chronic low-grade inflammation, and changes in lipid metabolism. For this reason, we determined whether PHAR, as an inducer of NRF2, could attenuate the inflammatory response. Specifically, we treated mice in the steatosis stage (week 6), 5 days a week with an IP administration of 50 mg/kg in order to analyze if it prevents progression to the next stage (NASH). […] Altogether, we conclude that PHAR slows down the accumulation of fat and, therefore, prevents the appearance of NASH.

[4] = STAM mice from week 6, IP 50 mg/kg 5 days a week

O=C1[C@@H]2[C@H](Cc3c[nH]c4ccccc34)N[C@]3(C(=O)Nc4ccc(Cl)cc43)[C@@H]2C(=O)N1c1ccc2c(c1)OCCO2 [PHAR]
Il6 and Tnfa induction ([1]; LPS 100 ng/ml): significantly milder induction
NRF2 and HO-1 levels ([1]; LPS 100 ng/ml): increased NRF2 and HO-1 levels
inflammatory parameters by immunoblot (pre-IL1β, COX2, NOS2) or mRNA (Il1β, Cox2, Nos2) ([1]; LPS 100 ng/ml 4 h): mitigated the increase in inflammatory parameters
NRF2 levels under LY294002 after PHAR pre-treatment [2]: prevented LY294002-induced NRF2 degradation, but furthermore favored NRF2 accumulation
accumulated liver fat (oil red) [3, 4]: significantly decreased the amount of accumulated liver fat
liver fat quantity by MRI at the end of treatment [3, 4]: slows the accumulation of liver fat
expression of anti-inflammatory cytokines Il10 and Il4 ([3]; STAM mice from week 6, liver): to increase the anti-inflammatory cytokines
expression of pro-inflammatory cytokines Tnf, Il6, Infg ([3]; STAM mice from week 6, liver): tendency to decrease
fatty acid synthesis, Fasn expression (mRNA) ([3]; STAM mice from week 6, liver): decreasing of Fasn
lipid catabolism, expression of Cpt1a (mRNA) ([3]; STAM mice from week 6, liver): increase in lipid catabolism
